Molecular target: T1, human H1 receptor (Homo sapiens, UniProt P35367)
T1 construct: expressed in transfected cells; host or cells: CHO cells (crude membranes)
Experiment: Human histamine H1 receptor binding assay
Conditions: competition with 1.5 nM [pyridinyl-5-3H]Pyrilamine, crude membranes of CHO cells transfected with human H1 receptor; Ki from IC50 by Cheng-Prusoff
Experimental: Compounds of the present invention may be evaluated for binding to the histamine H1 receptor by a standard binding assay. […] Non-specific binding is determined in the presence of excess (1 μM) doxepin. Bound and free ligand are separated by rapid vacuum filtration using a Packard 96-well cell harvester onto UniFilter GF/C filter plates (PerkinElmer) that has been pretreated with 1% polyethyleneimine. The filter plates are then washed with 600 μl phosphate buffered saline containing 0.01% (v/v) Triton-X100. Bound radioligand is determined by scintillation counting using a TopCount-NXT (Packard). Binding data is analyzed by nonlinear, least-squares curve fitting algorithms using GraphPad Prism (GraphPad Software, Inc. San Diego, Calif.) or ActivityBase (IDBS, Guildford, Surrey, UK).

T1 sequence (P35367 whole entry): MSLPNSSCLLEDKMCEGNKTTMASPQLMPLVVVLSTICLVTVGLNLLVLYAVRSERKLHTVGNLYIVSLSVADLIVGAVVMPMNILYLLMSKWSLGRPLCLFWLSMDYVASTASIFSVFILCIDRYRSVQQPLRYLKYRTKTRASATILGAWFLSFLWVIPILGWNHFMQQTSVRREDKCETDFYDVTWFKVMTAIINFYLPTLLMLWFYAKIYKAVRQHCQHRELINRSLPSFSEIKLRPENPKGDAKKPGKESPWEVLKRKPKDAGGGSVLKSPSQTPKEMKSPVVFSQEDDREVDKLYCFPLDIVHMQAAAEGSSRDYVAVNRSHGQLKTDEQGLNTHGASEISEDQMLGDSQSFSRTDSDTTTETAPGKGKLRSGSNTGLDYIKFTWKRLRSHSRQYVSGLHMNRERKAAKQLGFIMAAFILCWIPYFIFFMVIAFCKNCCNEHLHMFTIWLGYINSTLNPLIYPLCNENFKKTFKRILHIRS

Compound	Ki [nM]
CC(C1=C(CCN(C)C)Cc2cc(Cl)ccc21)c1nccs1 (single isomer, unassigned) [23-2, {2-[6-chloro-3-(1-thiazol-2-yl-ethyl)-1H-inden-2-yl]-ethyl}-dimethyl-amine]	≤ 250
COc1ccc2c(c1)C(C(C)c1nccs1)=C(CCN(C)C)C2 (single isomer, unassigned) [25-2, {2-[5-methoxy-3-(1-thiazol-2-yl-ethyl)-1H-inden-2-yl]-ethyl}-dimethyl-amine]	≤ 250
CC(C1=C(CCN(C)C)Cc2ccccc21)c1ccncn1 (stereo not shown) [4-2]	≤ 250
CN(C)CCC1=C(C(C)(C)c2cnccn2)c2ccccc2C1 [4-12]	≤ 250
CCOc1nccnc1CC1=C(CCN(C)C)Cc2ccccc21 [4-16]	≤ 250
CCCOc1cncc(CC2=C(CCN(C)C)Cc3ccccc32)n1 [4-17]	≤ 250
COc1nccnc1C(C)C1=C(CCN(C)C)Cc2cc(Cl)ccc21 (stereo not shown) [4-20]	≤ 250
COc1nccnc1[C@@H](C)C1=C(CCN(C)C)Cc2cc(Cl)ccc21 [4-22]	≤ 250
COc1nccnc1[C@H](C)C1=C(CCN(C)C)Cc2cc(Cl)ccc21 [4-23]	≤ 250
Cc1ccc2c(c1)CC(CCN(C)C)=C2Cc1cccnn1 [4-25]	≤ 250
CCOc1nccnc1C(C)C1=C(CCN(C)C)Cc2cc(F)ccc21 (stereo not shown) [4-38]	≤ 250
CCC(C1=C(CCN(C)C)Cc2cc(F)ccc21)c1nccnc1OC (stereo not shown) [4-39]	≤ 250
COc1ccc2c(c1)CC(CCN(C)C)=C2Cc1cccnn1 [4-42]	≤ 250
CCOCC(C)C1=C(CCN(C)C)Cc2ccccc21 (stereo not shown) [6-1, {2-[3-(2-ethoxy-1-methyl-ethyl)-1H-inden-2-yl]-ethyl}-dimethyl-amine]	≤ 250
COCC(C)C1=C(CCN(C)C)Cc2ccccc21 (stereo not shown) [6-2]	≤ 250
CC(C(=O)OC(C)(C)C)C1=C(CCN(C)C)Cc2ccccc21 (stereo not shown) [7-1, 2-[2-(2-dimethylamino-ethyl)-3H-inden-1-yl]-propionic acid tert-butyl ester]	≤ 250
COC(=O)C(C)C1=C(CCN(C)C)Cc2ccccc21 (stereo not shown) [7-3]	≤ 250
Cc1nnc(C(C)C2=C(CCN(C)C)Cc3ccccc32)o1 (stereo not shown) [8-1, dimethyl-(2-{3-[1-(5-methyl-[1,3,4]oxadiazol-2-yl)-ethyl]-1H-inden-2-yl}-ethyl)-amine]	≤ 250
CC(C1=C(CCN(C)C)Cc2ccccc21)c1nnc(-c2ccccc2)o1 (stereo not shown) [8-2]	≤ 250
CC(C1=C(CCN(C)C)Cc2ccccc21)c1ncc(-c2ccccc2)o1 (stereo not shown) [9-1, dimethyl-(2-{3-[1-(5-phenyl-oxazol-2-yl)-ethyl]-1H-inden-2-yl}-ethyl)-amine]	≤ 250
CC(C1=C(CCN(C)C)Cc2ccccc21)c1ncc(-c2ccccc2)s1 (stereo not shown) [10-1, dimethyl-(2-{3-[1-(5-phenyl-thiazol-2-yl)-ethyl]-1H-inden-2-yl}-ethyl)-amine]	≤ 250
Cc1cnc(C(C)C2=C(CCN(C)C)Cc3ccccc32)s1 (stereo not shown) [10-2, dimethyl-(2-{3-[1-(5-methyl-thiazol-2-yl)-ethyl]-1H-inden-2-yl}-ethyl)-amine]	≤ 250
Cc1cnc(C(C)C2=C(CCN(C)C)Cc3ccccc32)o1 (stereo not shown) [11-1]	≤ 250
CC1CN=C(C(C)C2=C(CCN(C)C)Cc3ccccc32)O1 (stereo not shown) [12-1, dimethyl-(2-{3-[1-(5-methyl-4,5-dihydro-oxazol-2-yl)-ethyl]-1H-inden-2-yl}-ethyl)-amine]	≤ 250
CC(C1=NCCO1)C1=C(CCN(C)C)Cc2ccccc21 (stereo not shown) [13-1, (2-{3-[1-(4,5-dihydro-oxazol-2-yl)-ethyl]-1H-inden-2-yl}-ethyl)-dimethyl-amine]	≤ 250
Cc1nnc(C(C)C2=C(CCN(C)C)Cc3ccccc32)s1 (stereo not shown) [14-1, dimethyl-(2-{3-[1-(5-methyl-[1,3,4]thiadiazol-2-yl)-ethyl]-1H-inden-2-yl}-ethyl)-amine]	≤ 250

Compound	Ki [nM]
CC(C1=C(CCN(C)C)Cc2ccccc21)c1nnc(-c2ccccc2)s1 (stereo not shown) [14-2]	≤ 250
CNCCC1=C([C@@H](C)c2cnccn2)c2ccccc2C1 [15-2, methyl-{2-[3-((R)-1-pyrazin-2-yl-ethyl)-1H-inden-2-yl]-ethyl}-amine]	≤ 250
CNCCC1=C(Cc2cnccn2)c2ccccc2C1 [15-4, methyl-[2-(3-pyrazin-2-ylmethyl-1H-inden-2-yl)-ethyl]-amine]	≤ 250
CNCCC1=C(C(C)c2cnccn2)c2ccc(C)cc2C1 (stereo not shown) [15-5]	≤ 250
CNCCC1=C(C(C)c2nc(C)cs2)c2ccccc2C1 (stereo not shown) [15-6]	≤ 250
CCN(C)CCC1=C(Cc2cnccn2)c2ccccc2C1 [16-1, ethyl-methyl-[2-(3-pyrazin-2-ylmethyl-1H-inden-2-yl)-ethyl]-amine]	≤ 250
CCCN(C)CCC1=C(Cc2cnccn2)c2ccccc2C1 [16-2]	≤ 250
CN(CCO)CCC1=C(Cc2cnccn2)c2ccccc2C1 [16-3]	≤ 250
CC(CC1=C(Cc2cnccn2)c2ccccc2C1)N(C)C (stereo not shown) [18-1, dimethyl-[1-methyl-2-(3-pyrazin-2-ylmethyl-1H-inden-2-yl)-ethyl]-amine]	≤ 250
CC(CC1=C(Cc2cnccn2)c2ccccc2C1)N1CCCC1 (stereo not shown) [18-4]	≤ 250
CC(CC1=C(Cc2cccnn2)c2ccccc2C1)N1CCCC1 (stereo not shown) [18-5]	≤ 250
Fc1ccc2c(c1)CC(CCN1CCCC1)=C2Cc1cccnn1 [19-1, 3-[5-fluoro-2-(2-pyrrolidin-1-yl-ethyl)-3H-inden-1-ylmethyl]-pyridazine]	≤ 250
Fc1ccc2c(c1)CC(CCN1CCOCC1)=C2Cc1cccnn1 [19-2]	≤ 250
O[C@@H]1CCN(CCC2=C(Cc3cccnn3)c3ccc(F)cc3C2)C1 [19-3]	≤ 250
O[C@H]1CCN(CCC2=C(Cc3cccnn3)c3ccc(F)cc3C2)C1 [19-4]	≤ 250
Fc1ccc2c(c1)CC(CCN1CCC1)=C2Cc1cccnn1 [20-1, 3-[2-(2-azetidin-1-yl-ethyl)-5-fluoro-3H-inden-1-ylmethyl]-pyridazine]	≤ 250
COc1ccc2c(c1)CC(CCN1CCC1)=C2C(C)c1cnccn1 (stereo not shown) [21-1, 2-{1-[2-(2-azetidin-1-yl-ethyl)-5-methoxy-3H-inden-1-yl]-ethyl}-pyrazine]	≤ 250
COc1ccc2c(c1)CC(CCN1CCC1)=C2[C@@H](C)c1cnccn1 [21-2]	≤ 250
COc1ccc2c(c1)CC(CCN1CCCC1)=C2Cc1cnccn1 [21-5]	≤ 250
COc1ccc2c(c1)CC(CCN1CCCC1)=C2Cc1cccnn1 [21-6]	≤ 250
c1ccc2c(c1)CC(CCN1CCCC1)=C2Cc1cnccn1 [21-7]	≤ 250
c1cnnc(CC2=C(CCN3CCCC3)Cc3ccccc32)c1 [21-8]	≤ 250
COc1ccc2c(c1)CC(CCN1CCOCC1)=C2Cc1cnccn1 [21-9]	≤ 250
c1ccc2c(c1)CC(CCN1CCC1)=C2Cc1cnccn1 [21-10]	≤ 250
Cc1csc([C@H](C)C2=C(CCN(C)C)Cc3cc(Cl)ccc32)n1 [22-5]	≤ 250
CC(C#N)C1=C(CCN(C)C)Cc2cc(Cl)ccc21 (stereo not shown) [23-1, 2-[5-chloro-2-(2-dimethylamino-ethyl)-3H-inden-1-yl]-propionitrile]	≤ 250
